The numbers were not newly measured in US4873092A, “Slow-releasing preparation” (Murata Kikai Kabushiki Kaisha, priority 1987, dated 1989), which cites them from elsewhere.

For the data set the following is noted: mouce.

Regarding `COc1cccc2c1C(=O)c1c(O)c3c(c(O)c1C2=O)C[C@@](O)(C(=O)CO)C[C@@H]3O[C@H]1C[C@H](N)[C@H](O)[C@H](C)O1` [Adriamycin], the LD50 value is 9.8 mg/kg.
